Where two headings read alike, the source gives them in different places.
Target: T1, PDE2 (Bos taurus, UniProt P14099)
T1 sequence (P14099 1-921): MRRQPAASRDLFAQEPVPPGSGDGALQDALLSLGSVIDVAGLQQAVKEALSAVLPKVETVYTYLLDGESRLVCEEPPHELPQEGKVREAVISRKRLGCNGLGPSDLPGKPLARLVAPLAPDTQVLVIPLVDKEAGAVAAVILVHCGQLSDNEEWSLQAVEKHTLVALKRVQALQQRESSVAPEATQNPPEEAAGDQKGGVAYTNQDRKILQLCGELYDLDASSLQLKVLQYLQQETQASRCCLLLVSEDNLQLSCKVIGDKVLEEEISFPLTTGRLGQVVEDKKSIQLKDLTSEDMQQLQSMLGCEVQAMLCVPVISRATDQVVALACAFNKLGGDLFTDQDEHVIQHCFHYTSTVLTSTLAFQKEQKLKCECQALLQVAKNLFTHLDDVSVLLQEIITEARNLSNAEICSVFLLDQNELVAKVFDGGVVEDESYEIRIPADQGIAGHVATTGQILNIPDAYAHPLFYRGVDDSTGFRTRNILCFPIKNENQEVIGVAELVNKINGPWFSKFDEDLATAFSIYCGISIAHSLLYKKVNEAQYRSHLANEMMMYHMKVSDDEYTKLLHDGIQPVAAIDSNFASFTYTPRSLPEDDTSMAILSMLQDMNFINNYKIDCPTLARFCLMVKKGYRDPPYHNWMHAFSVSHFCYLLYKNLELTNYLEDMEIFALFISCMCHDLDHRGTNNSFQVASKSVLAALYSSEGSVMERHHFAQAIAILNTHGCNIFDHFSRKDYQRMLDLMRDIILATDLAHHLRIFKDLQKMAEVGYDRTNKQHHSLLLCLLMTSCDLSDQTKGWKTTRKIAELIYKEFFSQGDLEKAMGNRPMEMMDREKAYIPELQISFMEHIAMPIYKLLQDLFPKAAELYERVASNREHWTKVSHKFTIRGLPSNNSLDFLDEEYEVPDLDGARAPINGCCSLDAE
Experiment: Radioenzymatic phosphodiesterase assay: PDE2 inhibition
Type: biochemical, bovine
Conditions: read-out: PDE2 percentage of inhibition at 10 μM
Procedure: Nucleoside radioactivity was determined by liquid scintillation.

Compound	inhibition at 10 µM [%]	inhibition at 10 µM (Table 1, 10 μM test compound) [%]
CCCN1C(=O)CN=C(c2cccc(C#N)c2)c2cc(-c3ccccc3OC)c(OC)cc21 [Example 37, 3-[8-Methoxy-7-(2-methoxy-phenyl)-2-oxo-1-propyl-2,3-dihydro-1H-benzo[e][1,4]diazepin-5-yl]-benzonitrile]	45	
COc1ccccc1-c1cc2c(cc1OC)N(CCc1ccccc1)C(=O)CN=C2c1cccc(C#N)c1 [Example 38, 3-[8-Methoxy-7-(2-methoxy-phenyl)-2-oxo-1-phenethyl-2,3-dihydro-1H-benzo[e][1,4]diazepin-5-yl]-benzonitrile]		86
COc1ccccc1-c1cc2c(cc1OC)N(Cc1ccccc1)C(=O)CN=C2c1cccc(C#N)c1 [Example 39, 3-[1-Benzyl-8-methoxy-7-(2-methoxy-phenyl)-2-oxo-2,3-dihydro-1H-benzo[e][1,4]diazepin-5-yl]-benzonitrile]	72	
CN1C(=O)CN=C(c2cccc(Cl)c2)c2cc(-c3ccccc3)ccc21 [Example 40, 5-(3-Chloro-phenyl)-1-methyl-7-phenyl-1,3-dihydro-benzo[e][1,4]diazepin-2-one]		68
CN1C(=O)CN=C(c2ccccc2Cl)c2cc(-c3ccccc3)ccc21 [Example 41, 5-(2-Chloro-phenyl)-1-methyl-7-phenyl-1,3-dihydro-benzo[e][1,4]diazepin-2-one]		34
CN1C(=O)CN=C(c2ccc(Cl)cc2)c2cc(-c3ccccc3)ccc21 [Example 42, 5-(4-Chloro-phenyl)-1-methyl-7-phenyl-1,3-dihydro-benzo[e][1,4]diazepin-2-one]		1
COc1cc2c(cc1-c1ccc(C#N)cc1)C(c1cccc(C#N)c1)=NCC(=O)N2C [Example 43, 3-(8-Methoxy-1-methyl-2-oxo-7-(4-cyanophenyl)-2,3-dihydro-1H-benzo[e][1,4]diazepin-5-yl)-benzonitrile]	92	
COc1ccccc1-c1cc2c(cc1OC)N(Cc1ccccc1)C(=O)CN=C2c1cccc(C(N)=O)c1 [Example 44, 3-[1-Benzyl-8-methoxy-7-(2-methoxy-phenyl)-2-oxo-2,3-dihydro-1H-benzo[e][1,4]diazepin-5-yl]-benzamide]	88	
CCCN1C(=O)CN=C(c2cccc(C(N)=O)c2)c2cc(-c3ccccc3OC)c(OC)cc21 [Example 45, 3-[8-Methoxy-7-(2-methoxy-phenyl)-2-oxo-1-propyl-2,3-dihydro-1H-benzo[e][1,4]diazepin-5-yl]-benzamide]	48	
COc1ccccc1-c1cc2c(cc1OC)N(CCc1ccccc1)C(=O)CN=C2c1cccc(C(N)=O)c1 [Example 46, 3-[8-Methoxy-7-(2-methoxy-phenyl)-2-oxo-1-phenethyl-2,3-dihydro-1H-benzo[e][1,4]diazepin-5-yl]-benzamide]	78	
CCCCCCN1C(=O)CN=C(c2cccc(C(N)=O)c2)c2cc(-c3ccccc3OC)c(OC)cc21 [Example 47, 3-[1-Hexyl-8-methoxy-7-(2-methoxy-phenyl)-2-oxo-2,3-dihydro-1H-benzo[e][1,4]diazepin-5-yl]-benzamide]	59	
COc1cc2c(cc1-c1ccc(C(C)=O)cc1)C(c1cccc(C#N)c1)=NCC(=O)N2C [Example 48, 3-[7-(4-Acetylphenyl)-8-methoxy-1-methyl-2-oxo-2,3-dihydro-1H-benzo[e][1,4]diazepin-5-yl]-benzonitrile]	97	
COc1cc2c(cc1-c1ccc(C(C)=O)cc1)C(c1cccc(C(N)=O)c1)=NCC(=O)N2C [Example 49, 3-[7-(4-Acetylphenyl)-8-methoxy-1-methyl-2-oxo-2,3-dihydro-1H-benzo[e][1,4]diazepin-5-yl]-benzamide]	99	
COc1ccc(C2=NCC(=O)N(C)c3ccc(-c4ccccc4)cc32)cc1 [Example 50, 5-(4-Methoxy-phenyl)-1-methyl-7-phenyl-1,3-dihydro-benzo[e][1,4]diazepin-2-one]	95	
COc1ccccc1C1=NCC(=O)N(C)c2ccc(-c3ccccc3)cc21 [Example 51, 5-(2-Methoxy-phenyl)-1-methyl-7-phenyl-1,3-dihydro-benzo[e][1,4]diazepin-2-one]		28
CN1C(=O)CN=C(c2cccc(C#N)c2)c2cc(-c3ccco3)ccc21 [Example 52, 3-[7-(Furan-2-yl)-1-methyl-2-oxo-2,3-dihydro-1H-benzo[e][1,4]diazepin-5-yl]-benzonitrile]		78

Compound	inhibition at 10 µM [%]	inhibition at 10 µM (Table 1, 10 μM test compound) [%]
COc1ccc(-c2ccc3c(c2)C(c2cccc(C#N)c2)=NCC(=O)N3C)cc1OC [Example 53, 3-[7-(3,4-Dimethoxy-phenyl)-1-methyl-2-oxo-2,3-dihydro-1H-benzo[e][1,4]diazepin-5-yl]-benzonitrile]	95	
COc1ccc(-c2ccc3c(c2)C(c2cccc(C(N)=O)c2)=NCC(=O)N3C)cc1OC [Example 54, 3-[7-(3,4-Dimethoxy-phenyl)-1-methyl-2-oxo-2,3-dihydro-1H-benzo[e][1,4]diazepin-5-yl]-benzamide]	94	
CN1C(=O)CN=C(c2cc(Cl)cc(Cl)c2)c2cc(-c3ccccc3)ccc21 [Example 55, 5-(3,5-Dichloro-phenyl)-1-methyl-7-phenyl-1,3-dihydro-benzo[e][1,4]diazepin-2-one]		53
CN1C(=O)CN=C(c2ccc(Cl)c(Cl)c2)c2cc(-c3ccccc3)ccc21 [Example 56, 5-(3,4-Dichloro-phenyl)-1-methyl-7-phenyl-1,3-dihydro-benzo[e][1,4]diazepin-2-one]		70
CN1C(=O)CN=C(c2ccc(F)cc2)c2cc(-c3ccccc3)ccc21 [Example 57, 5-(4-Fluoro-phenyl)-1-methyl-7-phenyl-1,3-dihydro-benzo[e][1,4]diazepin-2-one]		74
CC(=O)c1cccc(C2=NCC(=O)N(C)c3ccc(-c4ccccc4)cc32)c1 [Example 58, 5-(3-Acetyl-phenyl)-1-methyl-7-phenyl-1,3-dihydro-benzo[e][1,4]diazepin-2-one]		91
CN1C(=O)CN=C(c2cccc(C(F)(F)F)c2)c2cc(-c3ccccc3)ccc21 [Example 59, 1-Methyl-7-phenyl-5-(3-trifluoromethyl-phenyl)-1,3-dihydro-benzo[e][1,4]diazepin-2-one]		43
Cc1ccc(C2=NCC(=O)N(C)c3ccc(-c4ccccc4)cc32)cc1[N+](=O)[O-] [Example 60, 1-Methyl-5-(4-methyl-3-nitro-phenyl)-7-phenyl-1,3-dihydro-benzo[e][1,4]diazepin-2-one]		88
CN1C(=O)CN=C(c2ccc(OC(F)(F)F)cc2)c2cc(-c3ccccc3)ccc21 [Example 61, 1-Methyl-7-phenyl-5-(4-trifluoromethoxy-phenyl)-1,3-dihydro-benzo[e][1,4]diazepin-2-one]		31
COc1cc2c(cc1-c1ccccc1)C(c1cccc(Br)c1)=NCC(=O)N2C [Example 62, 5-(3-Bromo-phenyl)-8-methoxy-1-methyl-7-phenyl-1,3-dihydro-benzo[e][1,4]diazepin-2-one]		98
COc1cc2c(cc1-c1ccccc1OC(C)C)C(c1cccc(C#N)c1)=NCC(=O)N2C [Example 63, 3-[7-(2-isopropoxy-phenyl)-8-methoxy-1-methyl-2-oxo-2,3-dihydro-1H-benzo[e][1,4]diazepin-5-yl]-benzonitrile]	98	
COc1ccc(C2=NCC(=O)N(C)c3ccc(-c4ccccc4)cc32)cc1OC [Example 64, 5-(3,4-Dimethoxy-phenyl)-1-methyl-7-phenyl-1,3-dihydro-benzo[e][1,4]diazepin-2-one]		79
CN1C(=O)CN=C(c2cccc([N+](=O)[O-])c2)c2cc(-c3ccccc3)ccc21 [Example 65, 1-Methyl-5-(3-nitro-phenyl)-7-phenyl-1,3-dihydro-benzo[e][1,4]diazepin-2-one]		78
CCCCC#Cc1cccc(C2=NCC(=O)N(C)c3cc(OC)c(-c4ccccc4)cc32)c1 [Example 66, 5-(3-Hex-1-ynyl-phenyl)-8-methoxy-1-methyl-7-phenyl-1,3-dihydro-benzo[e][1,4]diazepin-2-one]	86	
COc1cc2c(cc1-c1ccccc1)C(c1cccc(C#CCNC(=O)OC(C)(C)C)c1)=NCC(=O)N2C [Example 67, {3-[3-(8-Methoxy-1-methyl-2-oxo-7-phenyl-2,3-dihydro-1H-benzo[e][1,4]diazepin-5-yl)-phenyl]-prop-2-ynyl}-carbamic acid tert-butyl ester]	60	
CN1C(=O)CN=C(c2cccc(N)c2)c2cc(-c3ccccc3)ccc21 [Example 68, 5-(3-Amino-phenyl)-1-methyl-7-phenyl-1,3-dihydro-benzo[e][1,4]diazepin-2-one]		52

Source: US7410963B2, “Benzo-1,4-diazepin-2-one derivatives as phosphodiesterase PDE2 inhibitors, preparation and therapeutic use thereof” (VIA Pharmaceuticals, Inc., priority 2003, dated 2008)
